Each structure is given as a SMILES string.

What is called viability is a read-out of living cells in per cent, often relative to untreated cells.

A short description of this data set: in vitro. The note with it: human, hela cells, % viability.

Take `O=C(CCSc1nnnn1-c1ccc(C(=O)O)cc1)Nc1ccc(F)cc1` [CBK300497]: the viability at 28.5 h, 10 µM was 88.4%. Then `O=C(CC1SC(N2CCOCC2)=NC1=O)Nc1cccc(C(=O)O)c1` (stereo not drawn) [CBK300498], with 101%. In the case of `Cc1cccnc1NC(=O)c1cc(O)nc2ccccc12` [CBK300499] it was 91.6%; in that of `CCCCNC(=O)c1c(N)n(-c2ccc(C(=O)O)cc2)c2nc3ccccc3nc12` [CBK300500], 82.7%. Then `CC(C)c1ccc(Cc2cnc(NC(=O)c3cc(Br)cs3)s2)cc1` [CBK300503], with 88.7%; and `Cn1c(COc2cccc3cccnc23)nnc1SCC(=O)O` [CBK300505], with 89.4%; and `COc1ccc(-c2nnc(SCCC(=O)O)[nH]2)cc1` [CBK300506], with 93.4%. Take `CS(=O)(=O)c1ccc(NC(=S)N2CCN(c3ccc(F)cc3)CC2)cc1` [CBK300507]: the viability at 28.5 h, 10 µM was 95.3%. Then `O=C(O)CSc1nnc(-c2ccc(S(=O)(=O)N3CCCCCC3)cc2)o1` [CBK300508], with 81.9%. In the case of `COc1ccc(C(=O)c2c(N)c(C(=O)Nc3ccccc3)c3ccccn23)cc1` [CBK300509] it was 92.6%; in that of `COc1ccc(CCNC(=O)NS(=O)(=O)c2ccc(C)cc2)cc1OC` [CBK300510], 88%; in that of `COc1cccc(N2CCN(c3cc4n[nH]c(=O)n4cn3)CC2)c1` [CBK300511], 87.1%.

For the compound `Cc1cc(C)c2c(n1)sc1c(N3CCC(C(=O)O)CC3)ncnc12` [CBK300512], the viability at 28.5 h, 10 µM is 83.1%. As for `Cc1ccc(-c2ccc(N3CCCC(C(=O)O)C3)nn2)cc1C` (stereo not drawn) [CBK300513], the viability at 28.5 h, 10 µM worked out at 95.8%. Then `CCN(CC(=O)NCc1cccnc1)S(=O)(=O)c1ccc2ccccc2c1` [CBK300514], with 108%; and `Cc1cc(C)c2c(N)c(C(=O)Nc3ccc(C(=O)O)cc3)sc2n1` [CBK300515], with 100%; and `Cc1ccc(S(=O)(=O)Nc2nc3ccccc3nc2Nc2ccc(C(=O)O)cc2)cc1C` [CBK300516], with 91.5%. As for `O=C(Nc1ccccc1C(F)(F)F)c1ccc(-n2cnnn2)cc1` [CBK300521], the viability at 28.5 h, 10 µM is 86.8%. In the case of `O=C(Nc1ncc(Cc2ccc(F)cc2)s1)c1ccc(-c2ccc(F)cc2)o1` [CBK300522] it was 99.5%; in that of `Cc1cccc(C)c1NC(=O)Nc1ccc(F)cc1F` [CBK300526], 90.2%; in that of `CSc1cccc(NC(=O)Nc2ccc3c(c2)OCCO3)c1` [CBK300527], 104%.

Regarding `CCCCc1ccc(-c2ccc(-c3cc(C(=O)O)c4cc(C)ccc4n3)o2)cc1` [CBK300528], the viability at 28.5 h, 10 µM was 94%. `O=C(c1ccccc1)c1ccc2n1CCC2C(=O)Nc1ccccc1F` (stereo not drawn) [CBK300530]: the viability at 28.5 h, 10 µM stood at 90.5%.

For the compound `CC1CCc2c(C(=O)Nc3ncc(Cc4ccccc4)s3)csc2C1` (stereo not drawn) [CBK300531], the viability at 28.5 h, 10 µM was 94.6%.

`COc1cccc(Cn2c(=O)c3sccc3n(CC(=O)NCc3ccc(C)cc3)c2=O)c1` [CBK300533]: the viability at 28.5 h, 10 µM was found to be 80.8%. Then `COc1ccc(CNC(=O)Cn2nc3c(SCc4ccc(Cl)cc4)nccn3c2=O)cc1` [CBK300541], with 90.5%; and `COc1ccc(-c2ccc(-c3cc(C(=O)O)c4ccccc4n3)o2)cc1` [CBK300542], with 75.5%; and `CCc1ccc(-c2ccc(-c3cc(C(=O)O)c4cc(Br)ccc4n3)o2)cc1` [CBK300543], with 90.6%. `CC(=O)N1CCN(c2ccc(NC(=O)C3C(C(=O)O)C3(C)C)cc2)CC1` (stereo not drawn) [CBK300545]: the viability at 28.5 h, 10 µM was 88.6%.

On to `O=S(=O)(O)c1cccc2cccc(I)c12` [CBK301197N], for which the viability at 28.5 h, 10 µM worked out at 89.1%. In the case of `O=[N+]([O-])c1ccc(Cc2cc[n+](-c3nc4ccccc4nc3[N-]S(=O)(=O)c3ccc([N+](=O)[O-])cc3)cc2)cc1` [CBK301201] it was 84.3%; in that of `OCCN(CC#CC(O)(c1ccccc1)c1cccc(F)c1)CCO` (stereo not drawn) [CBK301210C], 91.2%; in that of `CCc1ccc(CN2CCN(C(=O)c3ccncc3)CC2)cc1` [CBK301211G], 92.7%. Then `COc1cc(C(=O)N2CCN(Cc3c[nH]c4ccccc34)CC2)cc(OC)c1OC` [CBK301212G], with 77.7%; and `Brc1ccc2c(c1)[C@H]1C=CC[C@H]1[C@@H](c1ccccc1)N2` [CBK303238], with 89%. Then `O=c1[nH]c2c(c(=O)[nH]1)[C@H]1[C@H](O)[C@H](O)C[C@H]1[C@@H](c1ccccc1)N2` [CBK303239], with 88.1%; and `O=C(O)[C@H]1Nc2ccc(Br)cc2[C@H]2[C@H](O)[C@H](O)C[C@H]21` [CBK303242], with 115%; and `CC(C)(C)C1=CC2=NC3(CCC3)[C@@H]3C[C@@H](O)[C@@H](O)[C@@H]3N2O1` [CBK303243], with 104%. On to `CC(C)(C)C1=CC2=NC3(CCOCC3)[C@@H]3C[C@@H](O)[C@@H](O)[C@@H]3N2O1` [CBK303244], for which the viability at 28.5 h, 10 µM turned out to be 90.1%. On to `CC(C)(C)C1=CC2=NC3(CCCC3)[C@@H]3C[C@@H](O)[C@@H](O)[C@@H]3N2O1` [CBK303245], for which the viability at 28.5 h, 10 µM was determined as 95.1%. Then `CC(C)(C)C1=CC2=NC3(CCS(=O)(=O)CC3)[C@@H]3C[C@@H](O)[C@@H](O)[C@@H]3N2O1` [CBK303247], with 92%. With `Oc1nc(O)c2c(n1)NC1(CCC1)[C@@H]1C[C@@H](O)[C@@H](O)[C@H]21` [CBK303249], the viability at 28.5 h, 10 µM stood at 91.4%. In the case of `Cn1c2c(c(=O)n(C)c1=O)[C@H]1[C@H](O)[C@H](O)C[C@H]1C1(CCC1)N2` [CBK303250], the viability at 28.5 h, 10 µM is 93.6%.

Turning to `Cc1nsc2c1[C@H]1[C@H](O)[C@H](O)C[C@H]1C1(CCC1)N2` [CBK303258], the viability at 28.5 h, 10 µM was 100%. In the case of `CC(C)(C)C1=CC2=NC3(CCC3)C3C[C@@](C)(O)[C@@H](O)[C@@H]3N2O1` (stereo partly drawn) [CBK303263] it was 112%; in that of `Cn1c2c(c(=O)n(C)c1=O)[C@@H]1C(C[C@](O)(COCc3ccccc3)[C@H]1O)C1(CCC1)N2` (stereo partly drawn) [CBK303265], 116%. For the compound `Cc1noc2c1[C@H]1[C@H](O)[C@H](O)C[C@H]1C1(CCC1)N2` [CBK303266], the viability at 28.5 h, 10 µM stood at 111%. Then `Cc1ccc(CC2CCCN(C(=O)NCc3cnn(C)c3)C2)cc1` (stereo not drawn) [CBK303990], with 91.8%; and `CNS(=O)(=O)c1cccc(C(=O)N(C)Cc2ccsc2)c1` [CBK303993], with 113%; and `CC1CN(Cc2cccc(CNc3ncccc3C#N)c2)CCO1` (stereo not drawn) [CBK303994], with 95.7%. In the case of `O=C(CN1CCn2ccnc2C1)N(Cc1ccccc1F)C1CC1` [CBK303995] it was 89.6%; in that of `CCn1cnnc1C1CCN(C(=O)c2ccc(C)c(Cl)c2)CC1` [CBK303997], 94.9%. Then `Cc1nnc(CN(C)C2CCN(CCCc3ccccc3)C2)n1C` (stereo not drawn) [CBK304000], with 115%. For the compound `N#CCCN(Cc1cccnc1)C(=O)Cc1noc2ccccc12` [CBK304001], the viability at 28.5 h, 10 µM is 113%. For the compound `CCc1nc(CC(=O)NC(C)C(O)c2ccc(F)cc2)cs1` (stereo not drawn) [CBK304003], the viability at 28.5 h, 10 µM was 86.7%. As to `Cc1nc(C)n(CC2CCCN2Cc2cn3ccccc3c2C#N)n1` (stereo not drawn) [CBK304006], the viability at 28.5 h, 10 µM was 91%. Turning to `Cc1nc(C)n(CC2CCCN(Cc3cn4c(C)cccc4n3)C2)n1` (stereo not drawn) [CBK304007], the viability at 28.5 h, 10 µM stood at 97.7%.

On to `COCCCNC(=O)CN1CCCCC1Cn1nc(C)cc1C` (stereo not drawn) [CBK304009], for which the viability at 28.5 h, 10 µM came out at 104%. In the case of `Cc1nc(S(=O)(=O)Cc2nccn2C)n(CC2CCCO2)c1C` (stereo not drawn) [CBK304012], the viability at 28.5 h, 10 µM turned out to be 87%. Then `c1ccc(C(NCc2cnc(-c3ncccn3)s2)C2CCC2)cc1` (stereo not drawn) [CBK304013], with 81.5%.

`N#CCCN(Cc1ccco1)C(=O)c1cccc(NC(=O)C2CC2)c1` [CBK304014]: the viability at 28.5 h, 10 µM turned out to be 99.5%. Take `Cc1ccn2ncc(C(=O)N3CCCCCC3c3ccco3)c2n1` (stereo not drawn) [CBK304015]: the viability at 28.5 h, 10 µM worked out at 111%. Then `CCc1nc2ccccc2n1CC(=O)N(C)C(C)c1cccnc1` (stereo not drawn) [CBK304017], with 110%. In the case of `Cc1c(C(C)NCC2CCCC2O)cnn1-c1ccc(C#N)cc1` (stereo not drawn) [CBK304019] it was 94.5%; in that of `CCOC(=O)C1CCCN(Cc2cc(F)cc(C(C)=O)c2O)C1` (stereo not drawn) [CBK304020], 87.1%; in that of `N#Cc1ccncc1NCc1ccccc1CN1CCCC1CO` (stereo not drawn) [CBK304021], 85%.

Consider `c1ccc(C(NCc2cnc(C3CCC3)s2)C2CCCC2)nc1` (stereo not drawn) [CBK304022], for which the viability at 28.5 h, 10 µM is 88.6%. In the case of `CN(C(=O)NC1CCCc2c1cnn2CCO)c1ccccc1F` (stereo not drawn) [CBK304024] it was 109%. Take `Cn1c(C2CC2)nc2c1CCN(Cc1cc(=O)n(C)c(=O)n1C)C2` [CBK304025]: the viability at 28.5 h, 10 µM was found to be 115%. Then `Cc1nc(C)n(CC2CCCN(Cc3cn4ccccc4n3)C2)n1` (stereo not drawn) [CBK304028], with 88.3%; and `Cc1nnc(SCCN2CCOC2=O)n1CCc1cccs1` [CBK304029], with 93.7%.

With `CCC(c1ccc(F)cc1F)N1CCN(Cc2nc(C)no2)CC1` (stereo not drawn) [CBK304032], the viability at 28.5 h, 10 µM turned out to be 103%. In the case of `Cc1cccn2cc(CCNC(=O)N3CCOCC3C3CC3)nc12` (stereo not drawn) [CBK304033] it was 104%; in that of `CCOC(=O)c1cnn(C2CCCN(Cc3cncs3)C2)c1` (stereo not drawn) [CBK304039], 94.7%.

For `Cc1cc(C)n(CC2CCCCN2C(=O)COc2cccnc2)n1` (stereo not drawn) [CBK304040], the viability at 28.5 h, 10 µM was 105%.

With `Cc1cnn(CC2CCCCN2CC(=O)NCc2ccccn2)c1` (stereo not drawn) [CBK304041], the viability at 28.5 h, 10 µM is 110%. Then `CCOC(=O)c1cnn(C2CCCN(Cc3cn(C)nc3C)C2)c1` (stereo not drawn) [CBK304044], with 89.2%. In the case of `CCNc1ncc(C(=O)N2CCC(Nc3cccnc3)CC2)s1` [CBK304047] it was 99.6%.

Source of the values: article PMC12040169 (PLOS Biology, 2025).
